From PubChem BioAssay (NCI)
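Method: 48-hour compound exposure of cells in 96-well plates, five concentrations, linear interpolation of endpoints. At the GI50, growth is halved. The concentration for full growth arrest is given as TGI.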

Tests used:
Assay in all cases: DTP human tumour cell line panel, 48 h
786-0 renal = system: 786-0 renal
A498 renal = system: A498 renal
A549 NSCLC = system: A549 NSCLC
ACHN renal = system: ACHN renal
BT-549 breast = system: BT-549 breast
CAKI-1 renal = system: CAKI-1 renal
CCRF-CEM leukemia = system: CCRF-CEM leukemia
COLO 205 colon = system: COLO 205 colon
DU-145 prostate = system: DU-145 prostate
EKVX NSCLC = system: EKVX NSCLC
HCC-2998 colon = system: HCC-2998 colon
HCT-116 colon = system: HCT-116 colon
HCT-15 colon = system: HCT-15 colon
HL-60(TB) leukemia = system: HL-60(TB) leukemia
HOP-62 NSCLC = system: HOP-62 NSCLC
HOP-92 NSCLC = system: HOP-92 NSCLC
HS 578T breast = system: HS 578T breast
HT29 colon = system: HT29 colon
IGROV1 ovarian = system: IGROV1 ovarian
K-562 leukemia = system: K-562 leukemia
KM12 colon = system: KM12 colon
LOX IMVI melanoma = system: LOX IMVI melanoma
M14 melanoma = system: M14 melanoma
MALME-3M melanoma = system: MALME-3M melanoma
MCF7 breast = system: MCF7 breast
MDA-MB-231 breast = system: MDA-MB-231 breast
MDA-MB-435 = system: MDA-MB-435
MDA-MB-468 breast = system: MDA-MB-468 breast
MOLT-4 leukemia = system: MOLT-4 leukemia
NCI-H226 lung = system: NCI-H226 lung
NCI-H23 lung = system: NCI-H23 lung
NCI-H460 lung = system: NCI-H460 lung
NCI-H522 lung = system: NCI-H522 lung
NCI/ADR-RES ovarian = system: NCI/ADR-RES ovarian
OVCAR-3 ovarian = system: OVCAR-3 ovarian
OVCAR-4 ovarian = system: OVCAR-4 ovarian
OVCAR-5 ovarian = system: OVCAR-5 ovarian
OVCAR-8 ovarian = system: OVCAR-8 ovarian
PC-3 prostate = system: PC-3 prostate
RPMI-8226 leukemia = system: RPMI-8226 leukemia
RXF 393 renal = system: RXF 393 renal
SF-268 CNS = system: SF-268 CNS
SF-295 CNS = system: SF-295 CNS
SF-539 CNS = system: SF-539 CNS
SK-MEL-2 melanoma = system: SK-MEL-2 melanoma
SK-MEL-28 melanoma = system: SK-MEL-28 melanoma
SK-MEL-5 melanoma = system: SK-MEL-5 melanoma
SK-OV-3 ovarian = system: SK-OV-3 ovarian
SN12C renal = system: SN12C renal
SNB-19 CNS = system: SNB-19 CNS
SNB-75 CNS = system: SNB-75 CNS
SR leukemia = system: SR leukemia
SW-620 colon = system: SW-620 colon
T-47D breast = system: T-47D breast
TK-10 renal = system: TK-10 renal
U251 CNS = system: U251 CNS
UACC-257 melanoma = system: UACC-257 melanoma
UACC-62 melanoma = system: UACC-62 melanoma
UO-31 renal = system: UO-31 renal

Question: For O=C(N/N=C/c1c[nH]c2ccccc12)Nc1ccc(F)c(Cl)c1, which GI50 (786-0 renal) is on record?
Answer: 1.37 µM

Question: What about the TGI (786-0 renal) of the same molecule?
Answer: 3.27 µM

Question: And the GI50 (A498 renal)?
Answer: 15.4 µM

Question: And the TGI (A498 renal)?
Answer: 30.2 µM

Question: And the GI50 (A549 NSCLC)?
Answer: 12.7 µM

Question: And the TGI (A549 NSCLC)?
Answer: 26.3 µM

Question: And the GI50 (ACHN renal)?
Answer: 14.6 µM

Question: And the TGI (ACHN renal)?
Answer: 27.7 µM

Question: And the GI50 (BT-549 breast)?
Answer: 0.312 µM

Question: And the TGI (BT-549 breast)?
Answer: 1.54 µM

Question: What about the GI50 (CAKI-1 renal) of the same molecule?
Answer: 14.8 µM

Question: What about the TGI (CAKI-1 renal) of the same molecule?
Answer: 28 µM

Question: What about the GI50 (CCRF-CEM leukemia) of the same molecule?
Answer: 0.604 µM

Question: What about the TGI (CCRF-CEM leukemia) of the same molecule?
Answer: 11.7 µM

Question: And the GI50 (COLO 205 colon)?
Answer: 14.1 µM

Question: What about the TGI (COLO 205 colon) of the same molecule?
Answer: 27.1 µM

Question: What about the GI50 (DU-145 prostate) of the same molecule?
Answer: 14.4 µM

Question: What about the TGI (DU-145 prostate) of the same molecule?
Answer: 27.4 µM

Question: What about the GI50 (EKVX NSCLC) of the same molecule?
Answer: 13.8 µM

Question: And the TGI (EKVX NSCLC)?
Answer: 28.6 µM

Question: And the GI50 (HCC-2998 colon)?
Answer: 11.7 µM

Question: And the TGI (HCC-2998 colon)?
Answer: 23.9 µM

Question: What about the GI50 (HCT-116 colon) of the same molecule?
Answer: 1.49 µM

Question: What about the TGI (HCT-116 colon) of the same molecule?
Answer: 2.84 µM

Question: And the GI50 (HCT-15 colon)?
Answer: 5.13 µM

Question: And the TGI (HCT-15 colon)?
Answer: 17.9 µM

Question: And the GI50 (HL-60(TB) leukemia)?
Answer: 3.44 µM

Question: What about the TGI (HL-60(TB) leukemia) of the same molecule?
Answer: 18.8 µM

Question: And the GI50 (HOP-62 NSCLC)?
Answer: 13.1 µM

Question: What about the TGI (HOP-62 NSCLC) of the same molecule?
Answer: 25.8 µM

Question: And the GI50 (HOP-92 NSCLC)?
Answer: 2.04 µM

Question: And the TGI (HOP-92 NSCLC)?
Answer: 6.59 µM

Question: What about the GI50 (HS 578T breast) of the same molecule?
Answer: 13.7 µM

Question: And the TGI (HS 578T breast)?
Answer: 39.7 µM

Question: What about the GI50 (HT29 colon) of the same molecule?
Answer: 12.7 µM

Question: And the TGI (HT29 colon)?
Answer: 25.3 µM

Question: What about the GI50 (IGROV1 ovarian) of the same molecule?
Answer: 7.6 µM

Question: What about the TGI (IGROV1 ovarian) of the same molecule?
Answer: 21.7 µM

Question: What about the GI50 (K-562 leukemia) of the same molecule?
Answer: 1.86 µM

Question: And the TGI (K-562 leukemia)?
Answer: 17.4 µM

Question: And the GI50 (KM12 colon)?
Answer: 8.76 µM

Question: And the TGI (KM12 colon)?
Answer: 21 µM

Question: And the GI50 (LOX IMVI melanoma)?
Answer: 11.2 µM

Question: And the TGI (LOX IMVI melanoma)?
Answer: 23.2 µM

Question: What about the GI50 (M14 melanoma) of the same molecule?
Answer: 1.57 µM

Question: What about the TGI (M14 melanoma) of the same molecule?
Answer: 3.44 µM

Question: What about the GI50 (MALME-3M melanoma) of the same molecule?
Answer: 12.6 µM

Question: What about the TGI (MALME-3M melanoma) of the same molecule?
Answer: 25.1 µM

Question: What about the GI50 (MCF7 breast) of the same molecule?
Answer: 6.47 µM

Question: What about the TGI (MCF7 breast) of the same molecule?
Answer: 23.1 µM

Question: What about the GI50 (MDA-MB-231 breast) of the same molecule?
Answer: 11.8 µM

Question: And the TGI (MDA-MB-231 breast)?
Answer: 24 µM

Question: And the GI50 (MDA-MB-435)?
Answer: 3.35 µM

Question: And the TGI (MDA-MB-435)?
Answer: 12.6 µM

Question: And the GI50 (MDA-MB-468 breast)?
Answer: 1.98 µM

Question: And the TGI (MDA-MB-468 breast)?
Answer: 7.74 µM

Question: What about the GI50 (MOLT-4 leukemia) of the same molecule?
Answer: 1.44 µM

Question: And the TGI (MOLT-4 leukemia)?
Answer: 11.8 µM

Question: And the GI50 (NCI-H226 lung)?
Answer: 10.3 µM

Question: What about the TGI (NCI-H226 lung) of the same molecule?
Answer: 34.7 µM

Question: And the GI50 (NCI-H23 lung)?
Answer: 13.5 µM

Question: And the TGI (NCI-H23 lung)?
Answer: 27.2 µM

Question: And the GI50 (NCI-H460 lung)?
Answer: 13 µM

Question: What about the TGI (NCI-H460 lung) of the same molecule?
Answer: 26.3 µM

Question: And the GI50 (NCI-H522 lung)?
Answer: 1.68 µM

Question: What about the TGI (NCI-H522 lung) of the same molecule?
Answer: 8.35 µM

Question: What about the GI50 (NCI/ADR-RES ovarian) of the same molecule?
Answer: 6.05 µM

Question: And the TGI (NCI/ADR-RES ovarian)?
Answer: 25 µM

Question: What about the GI50 (OVCAR-3 ovarian) of the same molecule?
Answer: 11.5 µM

Question: What about the TGI (OVCAR-3 ovarian) of the same molecule?
Answer: 23.6 µM

Question: And the GI50 (OVCAR-4 ovarian)?
Answer: 12.8 µM

Question: And the TGI (OVCAR-4 ovarian)?
Answer: 28.7 µM

Question: What about the GI50 (OVCAR-5 ovarian) of the same molecule?
Answer: 13.5 µM

Question: What about the TGI (OVCAR-5 ovarian) of the same molecule?
Answer: 26.3 µM

Question: What about the GI50 (OVCAR-8 ovarian) of the same molecule?
Answer: 14.3 µM

Question: What about the TGI (OVCAR-8 ovarian) of the same molecule?
Answer: 31.6 µM

Question: And the GI50 (PC-3 prostate)?
Answer: 3.12 µM

Question: What about the TGI (PC-3 prostate) of the same molecule?
Answer: 14.5 µM

Question: And the GI50 (RPMI-8226 leukemia)?
Answer: 1.48 µM

Question: What about the TGI (RPMI-8226 leukemia) of the same molecule?
Answer: 9.26 µM

Question: What about the GI50 (RXF 393 renal) of the same molecule?
Answer: 3.97 µM

Question: What about the TGI (RXF 393 renal) of the same molecule?
Answer: 15.5 µM

Question: And the GI50 (SF-268 CNS)?
Answer: 8.09 µM

Question: What about the TGI (SF-268 CNS) of the same molecule?
Answer: 20.9 µM

Question: What about the GI50 (SF-295 CNS) of the same molecule?
Answer: 14.4 µM

Question: And the TGI (SF-295 CNS)?
Answer: 27.4 µM

Question: What about the GI50 (SF-539 CNS) of the same molecule?
Answer: 10.1 µM

Question: And the TGI (SF-539 CNS)?
Answer: 21.6 µM

Question: What about the GI50 (SK-MEL-2 melanoma) of the same molecule?
Answer: 10.7 µM

Question: What about the TGI (SK-MEL-2 melanoma) of the same molecule?
Answer: 22.6 µM

Question: And the GI50 (SK-MEL-28 melanoma)?
Answer: 12.5 µM

Question: And the TGI (SK-MEL-28 melanoma)?
Answer: 25 µM

Question: What about the GI50 (SK-MEL-5 melanoma) of the same molecule?
Answer: 8.65 µM

Question: And the TGI (SK-MEL-5 melanoma)?
Answer: 20.8 µM

Question: And the GI50 (SK-OV-3 ovarian)?
Answer: 12.9 µM

Question: And the TGI (SK-OV-3 ovarian)?
Answer: 26.8 µM

Question: What about the GI50 (SN12C renal) of the same molecule?
Answer: 11.2 µM

Question: And the TGI (SN12C renal)?
Answer: 23.2 µM

Question: What about the GI50 (SNB-19 CNS) of the same molecule?
Answer: 14.9 µM

Question: What about the TGI (SNB-19 CNS) of the same molecule?
Answer: 28.1 µM

Question: And the GI50 (SNB-75 CNS)?
Answer: 11.8 µM

Question: What about the TGI (SNB-75 CNS) of the same molecule?
Answer: 24 µM

Question: What about the GI50 (SR leukemia) of the same molecule?
Answer: 2.2 µM

Question: What about the TGI (SR leukemia) of the same molecule?
Answer: 13.3 µM

Question: What about the GI50 (SW-620 colon) of the same molecule?
Answer: 10.9 µM

Question: What about the TGI (SW-620 colon) of the same molecule?
Answer: 22.8 µM

Question: What about the GI50 (T-47D breast) of the same molecule?
Answer: 11.5 µM

Question: And the TGI (T-47D breast)?
Answer: 32 µM

Question: What about the GI50 (TK-10 renal) of the same molecule?
Answer: 22.8 µM

Question: And the TGI (TK-10 renal)?
Answer: 44.3 µM

Question: And the GI50 (U251 CNS)?
Answer: 13.3 µM

Question: What about the TGI (U251 CNS) of the same molecule?
Answer: 26 µM

Question: What about the GI50 (UACC-257 melanoma) of the same molecule?
Answer: 13.6 µM

Question: What about the TGI (UACC-257 melanoma) of the same molecule?
Answer: 26.4 µM

Question: And the GI50 (UACC-62 melanoma)?
Answer: 10.8 µM

Question: What about the TGI (UACC-62 melanoma) of the same molecule?
Answer: 22.6 µM

Question: What about the GI50 (UO-31 renal) of the same molecule?
Answer: 5.01 µM

Question: What about the TGI (UO-31 renal) of the same molecule?
Answer: 19.4 µM
